According to PubChem BioAssay (NCI):
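Exposure lasted 48 hours, with cells grown in 96-well plates and compounds tested at five concentrations. TGI denotes the concentration required for complete inhibition of growth.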

Key:
Experiment in all cases: inhibition of tumour cell growth, NCI panel, 48 h
786-0 renal = system: 786-0 renal
A498 renal = system: A498 renal
A549 NSCLC = system: A549 NSCLC
ACHN renal = system: ACHN renal
BT-549 breast = system: BT-549 breast
CAKI-1 renal = system: CAKI-1 renal
CCRF-CEM leukemia = system: CCRF-CEM leukemia
COLO 205 colon = system: COLO 205 colon
DU-145 prostate = system: DU-145 prostate
EKVX NSCLC = system: EKVX NSCLC
HCT-116 colon = system: HCT-116 colon
HCT-15 colon = system: HCT-15 colon
HL-60(TB) leukemia = system: HL-60(TB) leukemia
HOP-62 NSCLC = system: HOP-62 NSCLC
HOP-92 NSCLC = system: HOP-92 NSCLC
HS 578T breast = system: HS 578T breast
HT29 colon = system: HT29 colon
IGROV1 ovarian = system: IGROV1 ovarian
K-562 leukemia = system: K-562 leukemia
KM12 colon = system: KM12 colon
LOX IMVI melanoma = system: LOX IMVI melanoma
M14 melanoma = system: M14 melanoma
MALME-3M melanoma = system: MALME-3M melanoma
MCF7 breast = system: MCF7 breast
MDA-MB-231 breast = system: MDA-MB-231 breast
MDA-MB-435 = system: MDA-MB-435
MDA-N = system: MDA-N
MOLT-4 leukemia = system: MOLT-4 leukemia
NCI-H226 lung = system: NCI-H226 lung
NCI-H23 lung = system: NCI-H23 lung
NCI-H522 lung = system: NCI-H522 lung
NCI/ADR-RES ovarian = system: NCI/ADR-RES ovarian
OVCAR-3 ovarian = system: OVCAR-3 ovarian
OVCAR-4 ovarian = system: OVCAR-4 ovarian
OVCAR-5 ovarian = system: OVCAR-5 ovarian
OVCAR-8 ovarian = system: OVCAR-8 ovarian
PC-3 prostate = system: PC-3 prostate
RPMI-8226 leukemia = system: RPMI-8226 leukemia
RXF 393 renal = system: RXF 393 renal
SF-268 CNS = system: SF-268 CNS
SF-295 CNS = system: SF-295 CNS
SF-539 CNS = system: SF-539 CNS
SK-MEL-2 melanoma = system: SK-MEL-2 melanoma
SK-MEL-28 melanoma = system: SK-MEL-28 melanoma
SK-MEL-5 melanoma = system: SK-MEL-5 melanoma
SK-OV-3 ovarian = system: SK-OV-3 ovarian
SN12C renal = system: SN12C renal
SNB-19 CNS = system: SNB-19 CNS
SNB-75 CNS = system: SNB-75 CNS
SR leukemia = system: SR leukemia
SW-620 colon = system: SW-620 colon
T-47D breast = system: T-47D breast
U251 CNS = system: U251 CNS
UACC-62 melanoma = system: UACC-62 melanoma
UO-31 renal = system: UO-31 renal
HCC-2998 colon = system: HCC-2998 colon
NCI-H460 lung = system: NCI-H460 lung
TK-10 renal = system: TK-10 renal
UACC-257 melanoma = system: UACC-257 melanoma

`O=C(CSc1nc2ccc(I)cc2c(=O)n1Cc1ccccc1)Nc1ccccc1` gave a TGI (786-0 renal) of 23.9 µM, a TGI (A498 renal) of 46.4 µM and a TGI (A549 NSCLC) greater than 100 µM. The TGI (ACHN renal) was greater than 100 µM, the TGI (BT-549 breast) was 54.6 µM and the TGI (CAKI-1 renal) was greater than 100 µM. The TGI (CCRF-CEM leukemia) was greater than 100 µM, the TGI (COLO 205 colon) was greater than 100 µM and the TGI (DU-145 prostate) was greater than 100 µM. For the same molecule, the TGI (EKVX NSCLC) was 11.6 µM, the TGI (HCT-116 colon) was greater than 100 µM and the TGI (HCT-15 colon) was greater than 100 µM. The TGI (HL-60(TB) leukemia) was greater than 100 µM, the TGI (HOP-62 NSCLC) was 26.7 µM and the TGI (HOP-92 NSCLC) was 75 µM. For the same molecule, the TGI (HS 578T breast) was 17 µM, the TGI (HT29 colon) was greater than 100 µM and the TGI (IGROV1 ovarian) was greater than 100 µM. The TGI (K-562 leukemia) was greater than 100 µM, the TGI (KM12 colon) was greater than 100 µM and the TGI (LOX IMVI melanoma) was greater than 100 µM. It also gave a TGI (M14 melanoma) greater than 100 µM, a TGI (MALME-3M melanoma) of 43.8 µM and a TGI (MCF7 breast) greater than 100 µM. For the same molecule, the TGI (MDA-MB-231 breast) was greater than 100 µM, the TGI (MDA-MB-435) was greater than 100 µM and the TGI (MDA-N) was greater than 100 µM. For the same molecule, the TGI (MOLT-4 leukemia) was greater than 100 µM, the TGI (NCI-H226 lung) was 44.5 µM and the TGI (NCI-H23 lung) was greater than 100 µM. The TGI (NCI-H522 lung) was 90.6 µM, the TGI (NCI/ADR-RES ovarian) was 93.2 µM and the TGI (OVCAR-3 ovarian) was 40.4 µM. The TGI (OVCAR-4 ovarian) was greater than 100 µM, the TGI (OVCAR-5 ovarian) was greater than 100 µM and the TGI (OVCAR-8 ovarian) was 30 µM. The TGI (PC-3 prostate) was 31.9 µM, the TGI (RPMI-8226 leukemia) was greater than 100 µM and the TGI (RXF 393 renal) was 34.1 µM. For the same molecule, the TGI (SF-268 CNS) was 29.2 µM, the TGI (SF-295 CNS) was 66.7 µM and the TGI (SF-539 CNS) was 10.6 µM. The TGI (SK-MEL-2 melanoma) was 43.3 µM, the TGI (SK-MEL-28 melanoma) was greater than 100 µM and the TGI (SK-MEL-5 melanoma) was greater than 100 µM. The TGI (SK-OV-3 ovarian) was 46.4 µM, the TGI (SN12C renal) was greater than 100 µM and the TGI (SNB-19 CNS) was 62.7 µM. The TGI (SNB-75 CNS) was 12.2 µM, the TGI (SR leukemia) was 33.3 µM and the TGI (SW-620 colon) was greater than 100 µM. For the same molecule, the TGI (T-47D breast) was greater than 100 µM, the TGI (U251 CNS) was 48.8 µM and the TGI (UACC-62 melanoma) was greater than 100 µM. For the same molecule, the TGI (UO-31 renal) was 1.55 µM.
With `CCOC(=O)c1ccc2nc3n(c2c1)C(c1c(F)cccc1F)SC3` (stereo not drawn) the TGI (786-0 renal) was greater than 100 µM, the TGI (A498 renal) was greater than 100 µM and the TGI (A549 NSCLC) was greater than 100 µM. For the same molecule, the TGI (ACHN renal) was greater than 100 µM, the TGI (BT-549 breast) was greater than 100 µM and the TGI (CAKI-1 renal) was greater than 100 µM. It also gave a TGI (CCRF-CEM leukemia) greater than 100 µM, a TGI (COLO 205 colon) greater than 100 µM and a TGI (DU-145 prostate) greater than 100 µM. It also gave a TGI (EKVX NSCLC) greater than 100 µM, a TGI (HCC-2998 colon) greater than 100 µM and a TGI (HCT-116 colon) greater than 100 µM. The TGI (HCT-15 colon) was greater than 100 µM, the TGI (HL-60(TB) leukemia) was greater than 100 µM and the TGI (HOP-62 NSCLC) was greater than 100 µM. It also gave a TGI (HOP-92 NSCLC) greater than 100 µM, a TGI (HS 578T breast) greater than 100 µM and a TGI (HT29 colon) greater than 100 µM. The TGI (IGROV1 ovarian) was greater than 100 µM, the TGI (K-562 leukemia) was greater than 100 µM and the TGI (KM12 colon) was greater than 100 µM. The TGI (LOX IMVI melanoma) was greater than 100 µM, the TGI (M14 melanoma) was greater than 100 µM and the TGI (MCF7 breast) was greater than 100 µM. For the same molecule, the TGI (MDA-MB-231 breast) was greater than 100 µM, the TGI (MDA-MB-435) was greater than 100 µM and the TGI (MDA-N) was greater than 100 µM. The TGI (MOLT-4 leukemia) was greater than 100 µM, the TGI (NCI-H226 lung) was 87 µM and the TGI (NCI-H23 lung) was greater than 100 µM. For the same molecule, the TGI (NCI-H460 lung) was greater than 100 µM, the TGI (NCI/ADR-RES ovarian) was greater than 100 µM and the TGI (OVCAR-3 ovarian) was greater than 100 µM. For the same molecule, the TGI (OVCAR-4 ovarian) was greater than 100 µM, the TGI (OVCAR-5 ovarian) was greater than 100 µM and the TGI (OVCAR-8 ovarian) was greater than 100 µM. It also gave a TGI (PC-3 prostate) greater than 100 µM, a TGI (RPMI-8226 leukemia) greater than 100 µM and a TGI (RXF 393 renal) greater than 100 µM. It also gave a TGI (SF-268 CNS) greater than 100 µM, a TGI (SF-295 CNS) greater than 100 µM and a TGI (SF-539 CNS) greater than 100 µM. It also gave a TGI (SK-MEL-2 melanoma) greater than 100 µM, a TGI (SK-MEL-28 melanoma) greater than 100 µM and a TGI (SK-MEL-5 melanoma) greater than 100 µM. For the same molecule, the TGI (SK-OV-3 ovarian) was greater than 100 µM, the TGI (SN12C renal) was greater than 100 µM and the TGI (SNB-19 CNS) was greater than 100 µM. The TGI (SNB-75 CNS) was greater than 100 µM, the TGI (SR leukemia) was greater than 100 µM and the TGI (SW-620 colon) was greater than 100 µM. It also gave a TGI (T-47D breast) greater than 100 µM, a TGI (TK-10 renal) greater than 100 µM and a TGI (U251 CNS) greater than 100 µM. The TGI (UACC-257 melanoma) was greater than 100 µM, the TGI (UACC-62 melanoma) was greater than 100 µM and the TGI (UO-31 renal) was greater than 100 µM.
For `CCOc1ccccc1N=NC1C(=O)N(C(=O)CC(=O)Nc2ccccc2C)N=C1C` (stereo not drawn), the TGI (786-0 renal) was greater than 100 µM, the TGI (A498 renal) was greater than 100 µM and the TGI (A549 NSCLC) was greater than 100 µM. The TGI (ACHN renal) was greater than 100 µM, the TGI (BT-549 breast) was greater than 100 µM and the TGI (CAKI-1 renal) was greater than 100 µM. The TGI (CCRF-CEM leukemia) was greater than 100 µM, the TGI (COLO 205 colon) was greater than 100 µM and the TGI (DU-145 prostate) was greater than 100 µM. For the same molecule, the TGI (EKVX NSCLC) was 43.7 µM, the TGI (HCC-2998 colon) was greater than 100 µM and the TGI (HCT-116 colon) was greater than 100 µM. It also gave a TGI (HCT-15 colon) greater than 100 µM, a TGI (HL-60(TB) leukemia) greater than 100 µM and a TGI (HOP-62 NSCLC) of 41.5 µM. The TGI (HOP-92 NSCLC) was 40.8 µM, the TGI (HS 578T breast) was 31.5 µM and the TGI (HT29 colon) was greater than 100 µM. It also gave a TGI (IGROV1 ovarian) greater than 100 µM, a TGI (KM12 colon) greater than 100 µM and a TGI (LOX IMVI melanoma) greater than 100 µM. It also gave a TGI (M14 melanoma) greater than 100 µM, a TGI (MALME-3M melanoma) greater than 100 µM and a TGI (MCF7 breast) greater than 100 µM. The TGI (MDA-MB-231 breast) was greater than 100 µM, the TGI (MDA-MB-435) was greater than 100 µM and the TGI (MDA-N) was greater than 100 µM. For the same molecule, the TGI (MOLT-4 leukemia) was greater than 100 µM, the TGI (NCI-H226 lung) was greater than 100 µM and the TGI (NCI-H23 lung) was greater than 100 µM. It also gave a TGI (NCI-H460 lung) greater than 100 µM, a TGI (NCI-H522 lung) greater than 100 µM and a TGI (NCI/ADR-RES ovarian) greater than 100 µM. The TGI (OVCAR-3 ovarian) was greater than 100 µM, the TGI (OVCAR-4 ovarian) was greater than 100 µM and the TGI (OVCAR-5 ovarian) was greater than 100 µM. For the same molecule, the TGI (OVCAR-8 ovarian) was greater than 100 µM, the TGI (PC-3 prostate) was greater than 100 µM and the TGI (RPMI-8226 leukemia) was greater than 100 µM. It also gave a TGI (RXF 393 renal) of 89.4 µM, a TGI (SF-268 CNS) of 63.6 µM and a TGI (SF-295 CNS) of 36 µM. The TGI (SF-539 CNS) was greater than 100 µM, the TGI (SK-MEL-2 melanoma) was greater than 100 µM and the TGI (SK-MEL-28 melanoma) was greater than 100 µM. For the same molecule, the TGI (SK-MEL-5 melanoma) was greater than 100 µM, the TGI (SK-OV-3 ovarian) was 56.1 µM and the TGI (SN12C renal) was greater than 100 µM. For the same molecule, the TGI (SNB-75 CNS) was 54.6 µM, the TGI (SR leukemia) was greater than 100 µM and the TGI (SW-620 colon) was greater than 100 µM. The TGI (T-47D breast) was greater than 100 µM, the TGI (TK-10 renal) was greater than 100 µM and the TGI (U251 CNS) was 49.1 µM. It also gave a TGI (UACC-62 melanoma) greater than 100 µM and a TGI (UO-31 renal) of 63.6 µM.
